Source: paper PMC6678630 (International Journal of Molecular Sciences, 2019)

Key:
[1] = target: T1, human glucagon receptor (GCGR) (Homo sapiens, UniProt P47871); experiment: CRE-Luc cAMP-responsive luciferase reporter assay, glucagon receptor; format: cell-based
T1 construct: expressed in transfected cells; host or cells: HEK-293 (transient, with Cre-luc reporter)
Protocol: (§1) The start codon of SYFP2 was replaced by PCR with an XbaI site, and a NotI site was inserted behind the stop codon of SYFP2. The resulting fusion of receptor-SYFP2 was cloned in pcDNA3.
(§2) HEK-293 and Flip-In HEK-293 cells (Invitrogen) were cultured in Dulbecco’s modified Eagle’s media supplemented with 10% foetal calf serum, 100 U/mL penicillin and 100 µg/mL streptomycin. Cells were maintained at 37 °C in a humidified environment containing 5% CO2. HEK-293 cells were transiently transfected using Effectene (Qiagen, Hilden, Germany), following the manufacturer’s protocol. In order to generate stable cell lines Flip-In HEK-293 cells were transfected with the pcDNA5.FRT vector and pOG44 using Effectene. Stable isogenic clones were selected by the addition of hygromycin (100 µg/mL).
(§3) Twenty-four hours after transfection, the cells were seeded into white 96-well plates (Thermo Scientific, Roskilde, Denmark). Twenty-four hours later, the cells were incubated for 3 h in medium containing peptide ligand and then lysed. Luciferase activity was quantified using LucLite reagent (PerkinElmer Life and Analytic Sciences, Wellesley, MA, USA).
(§4) Dose-response curves represent the mean ± S.E.M from at least three independent experiments, each performed in triplicates. […] The dose-response data were fitted to a sigmoidal curve using nonlinear regression, and the EC50 values calculated with the aid of GraphPad 8.0 (GraphPad Dan Diego, CA, USA). The values in Table 1 represent the mean ± S.E.M calculated from the pEC50 (−logEC50) values from at least three independent experiments. Statistical analysis of significance was calculated with GraphPad 8.0 using a two˗tailed, unpaired Student’s t-test.

human GIPR = target: T2, human GIPR (Homo sapiens, UniProt P48546); experiment: CRE-Luc cAMP-responsive luciferase reporter assay, GIP receptor; format: cell-based
T2 construct: expressed in transfected cells; host or cells: HEK-293 (transient, with Cre-luc reporter)
T2 sequence (P48546 22-466): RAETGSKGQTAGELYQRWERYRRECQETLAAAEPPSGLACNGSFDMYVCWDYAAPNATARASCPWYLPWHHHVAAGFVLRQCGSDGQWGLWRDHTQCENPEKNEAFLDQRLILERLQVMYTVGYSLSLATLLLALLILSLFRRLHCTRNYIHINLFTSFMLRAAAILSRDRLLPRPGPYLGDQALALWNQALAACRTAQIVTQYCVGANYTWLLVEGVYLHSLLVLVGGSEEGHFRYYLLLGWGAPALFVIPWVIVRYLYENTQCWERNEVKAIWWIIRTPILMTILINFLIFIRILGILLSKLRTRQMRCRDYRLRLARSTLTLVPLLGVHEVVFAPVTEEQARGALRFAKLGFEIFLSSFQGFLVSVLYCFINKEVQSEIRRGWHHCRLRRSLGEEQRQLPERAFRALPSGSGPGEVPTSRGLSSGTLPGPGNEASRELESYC
Protocol: as §1, §2, §3, §4

human GLP-1R = target: T3, human GLP-1R (Homo sapiens, UniProt P43220); experiment: CRE-Luc cAMP-responsive luciferase reporter assay, GLP-1 receptor; format: cell-based
T3 construct: expressed in transfected cells; host or cells: HEK-293 (transient, with Cre-luc reporter)
T3 sequence (P43220 24-463): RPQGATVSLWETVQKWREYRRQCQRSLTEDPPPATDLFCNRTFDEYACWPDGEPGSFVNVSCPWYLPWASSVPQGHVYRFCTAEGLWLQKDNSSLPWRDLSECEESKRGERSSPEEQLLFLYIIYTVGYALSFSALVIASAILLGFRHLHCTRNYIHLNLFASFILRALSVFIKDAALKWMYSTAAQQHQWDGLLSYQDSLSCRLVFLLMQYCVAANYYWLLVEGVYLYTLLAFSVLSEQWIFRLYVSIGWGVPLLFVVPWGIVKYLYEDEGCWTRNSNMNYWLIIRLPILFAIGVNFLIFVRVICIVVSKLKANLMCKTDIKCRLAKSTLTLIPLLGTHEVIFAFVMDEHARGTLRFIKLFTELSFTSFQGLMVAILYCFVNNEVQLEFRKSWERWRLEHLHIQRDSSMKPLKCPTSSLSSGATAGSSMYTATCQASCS
Protocol: as §1
HEK-293 and Flip-In HEK-293 cells (Invitrogen) were cultured in Dulbecco’s modified Eagle’s media supplemented with 10% foetal calf serum, 100 U/mL penicillin and 100 µg/mL streptomycin. Cells were maintained at 37 °C in a humidified environment containing 5% CO2. HEK-293 cells were transiently transfected using Effectene (Qiagen, Hilden, Germany), following the manufacturer’s protocol. […]
Twenty-four hours after transfection, the cells were seeded into white 96-well plates (Thermo Scientific, Roskilde, Denmark). […] Luciferase activity was quantified using LucLite reagent (PerkinElmer Life and Analytic Sciences, Wellesley, MA, USA).
as §4

[2] = target: T4, human GLP-1R (GLP-1R-Nluc) (Homo sapiens, UniProt P43220); experiment: BRET Gαs recruitment to GLP-1 receptor; format: cell-based; settings: Gαs BRET (NES-Venus-Gαs), Flip-In HEK-293 cells stably expressing GLP-1R-Nluc, 15 min agonist; mean ± S.E.M., 4 independent experiments
T4 construct: expressed in transfected cells; host or cells: Flp-In HEK-293 stably expressing GLP-1R-NLuc (pcDNA5-FRT); NES-Venus-Gαs transient
T4 sequence (P43220 24-463): as above
Protocol: as §2, §4

GIPR = settings: cited from earlier work
Description: (§5) Several GLP-1R agonists (e.g., exenatide, liraglutide, and semaglutide) are currently used clinically to treat both T2DM and obesity. While they reduce mortality, improve glycemic control, reduce body weight and improve cardiovascular risk factors, the use of higher doses is often limited by adverse effects such as nausea and vomiting. There is therefore the potential to improve upon the current class of GLP-1R agonists. Targeting GIPR to treat T2DM and obesity has a somewhat contradictory history. Unlike GLP-1, pharmacological doses of exogenous GIP were not found to be ins ...

rodent models = settings: ref [26],[27]; cited from earlier work
Description: as §5

T1 sequence (P47871 26-477): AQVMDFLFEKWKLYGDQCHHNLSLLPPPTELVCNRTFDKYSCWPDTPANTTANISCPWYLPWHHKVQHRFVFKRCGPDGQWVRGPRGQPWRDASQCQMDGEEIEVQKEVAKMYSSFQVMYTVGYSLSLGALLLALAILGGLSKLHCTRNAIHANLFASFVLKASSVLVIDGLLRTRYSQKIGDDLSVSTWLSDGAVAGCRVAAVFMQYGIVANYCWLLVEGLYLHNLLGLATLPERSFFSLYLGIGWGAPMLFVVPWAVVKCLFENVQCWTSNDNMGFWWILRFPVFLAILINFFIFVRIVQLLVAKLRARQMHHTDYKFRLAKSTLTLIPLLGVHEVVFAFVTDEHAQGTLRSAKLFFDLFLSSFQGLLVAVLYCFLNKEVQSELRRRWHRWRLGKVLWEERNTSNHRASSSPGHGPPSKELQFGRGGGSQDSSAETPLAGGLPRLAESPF

CC[C@H](C)[C@H](NC(=O)[C@H](Cc1ccccc1)NC(=O)[C@H](CCC(=O)O)NC(=O)[C@H](CCCCN)NC(=O)[C@H](C)NC(=O)[C@H](C)NC(=O)[C@H](CCC(N)=O)NC(=O)CNC(=O)[C@H](CCC(=O)O)NC(=O)[C@H](CC(C)C)NC(=O)[C@H](Cc1ccc(O)cc1)NC(=O)[C@H](CO)NC(=O)[C@H](CO)NC(=O)[C@@H](NC(=O)[C@H](CC(=O)O)NC(=O)[C@H](CO)NC(=O)[C@@H](NC(=O)[C@H](Cc1ccccc1)NC(=O)[C@@H](NC(=O)CNC(=O)[C@H](CCC(=O)O)NC(=O)[C@H](C)NC(=O)[C@@H](N)Cc1c[nH]cn1)[C@@H](C)O)[C@@H](C)O)C(C)C)C(=O)N[C@@H](C)C(=O)N[C@@H](Cc1c[nH]c2ccccc12)C(=O)N[C@@H](CC(C)C)C(=O)N[C@H](C(=O)N[C@@H](CCCCN)C(=O)NCC(=O)N[C@@H](CCCNC(=N)N)C(=O)NCC(=O)O)C(C)C [GLP-1, Glucagon-like peptide-1]
activity at glucagon receptor, in words ([1]; CRE-Luc, HEK-293 cells, concentrations up to 1 µM): could not be detected | activity at GIP receptor, in words (human GIPR; CRE-Luc, HEK-293 cells): Neither glucagon nor GLP-1 displayed any detectable activity

CC[C@H](C)[C@H](NC(=O)[C@H](CO)NC(=O)[C@H](Cc1ccc(O)cc1)NC(=O)[C@H](CC(=O)O)NC(=O)[C@H](CO)NC(=O)[C@@H](NC(=O)[C@H](Cc1ccccc1)NC(=O)[C@@H](NC(=O)CNC(=O)[C@H](CCC(=O)O)NC(=O)C(C)(C)NC(=O)[C@@H](N)Cc1ccc(O)cc1)[C@@H](C)O)[C@@H](C)O)C(=O)N[C@@H](Cc1ccc(O)cc1)C(=O)N[C@@H](CC(C)C)C(=O)N[C@@H](CC(=O)O)C(=O)N[C@@H](CCCCN)C(=O)N[C@@H](CCC(N)=O)C(=O)N[C@@H](C)C(=O)N[C@@H](C)C(=O)NC(C)(C)C(=O)N[C@@H](CCC(=O)O)C(=O)N[C@@H](Cc1ccccc1)C(=O)N[C@H](C(=O)N[C@@H](CC(N)=O)C(=O)N[C@@H](Cc1c[nH]c2ccccc12)C(=O)N[C@@H](CC(C)C)C(=O)N[C@@H](CC(C)C)C(=O)N[C@@H](C)C(=O)NCC(=O)NCC(=O)N1CCC[C@H]1C(=O)N[C@@H](CO)C(=O)N[C@@H](CO)C(=O)NCC(=O)N[C@@H](C)C(=O)N1CCC[C@H]1C(=O)N1CCC[C@H]1C(=O)N1CCC[C@H]1C(=O)N[C@@H](CO)C(=O)N[C@@H](CCCCN)C(N)=O)C(C)C [P18]
EC50 [1]: 12600 nM | Emax (% Glucagon), Glucagon Receptor ([1]; maximum luciferase activity as a percentage of glucagon, HEK-293 cells, 3 h incubation, mean ± S.E.M., at least 3 independent experiments, ND = no detectable activity at 1 µM, P18 p < 0.0001 vs glucagon): 22.6 ± 1.96 d % Glucagon | Emax (% GIP), GIP Receptor (human GIPR; maximum luciferase activity as a percentage of GIP, HEK-293 cells, 3 h incubation, mean ± S.E.M., at least 3 independent experiments, ND = no detectable activity at 1 µM): 94.4 ± 4.09 % GIP | EC50 (human GIPR; −logEC50/M, CRE-Luc in transiently transfected HEK-293 cells, 3 h incubation, mean ± S.E.M., at least 3 independent experiments in triplicate, ND = no detectable activity at 1 µM, P18 p < 0.05 vs GIP, read-out: pEC50, GIP Receptor (converted)): 15.8 nM | EC50 (human GLP-1R): 0.2 nM | Emax (% GLP-1), GLP-1 Receptor (human GLP-1R; maximum luciferase activity as a percentage of GLP-1, HEK-293 cells, 3 h incubation, mean ± S.E.M., at least 3 independent experiments, ND = no detectable activity at 1 µM, glucagon p < 0.01 vs GLP-1): 106 ± 10.7 % GLP-1 | EC50 [2]: 39.8 nM

Pro3GIP: derivative of GIP with a glutamic acid to proline substitution at position three (YAPGTFISDYSIAMDKIHQQDFVNWLLAQKGKKNDWKHNITQ; Gastric inhibitory polypeptide; UniProt P09681 52-93, looked up, variant E3P)
initially reported activity at GIPR, in words (GIPR; initial report, later contradicted, ref [26],[27]): GIPR antagonist | activity at GIPR, in words (GIPR; ref [28],[29]): low potency GIPR agonist | protection against diabetes and obesity (rodent models): protective against diabetes and obesity in rodent models
